Columns and labels:
Format in all cases: in vivo
barnyard grass [1] = experiment: Test Example 1: weedkilling efficacy, preemergent weed treatment in the submerged state; A: barnyard grass; settings: treatment dosage 252 g/ha
Method in brief: (§1)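 Pots of alluvial soil were flooded to a 4 cm depth. Mixed weed seeds were sown and 2.5 leaf-stage rice seedlings transplanted. On sowing day, water-diluted emulsion was applied to the water surface (dose in g/ha). After 3 weeks at 25–30 °C, effects were rated.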

bulrush [2] = experiment: Test Example 1: weedkilling efficacy, preemergent weed treatment in the submerged state; B: bulrush; settings: treatment dosage 252 g/ha
Method in brief: as §1

oval-leafed pondweed [3] = experiment: Test Example 1: weedkilling efficacy, preemergent weed treatment in the submerged state; C: oval-leafed pondweed; settings: treatment dosage 252 g/ha
Method in brief: as §1

transplanted rice = experiment: Test Example 1: preemergent weed treatment in the submerged state, effect on crop; a: transplanted rice; settings: treatment dosage 252 g/ha
Method in brief: as §1

barnyard grass [4] = experiment: Test Example 2: weedkilling efficacy, growth period weed treatment in the submerged state; A: barnyard grass; settings: treatment dosage 252 g/ha
Method in brief: (§2)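 Weeds treated at the 1-2 leaf stage by application of diluted emulsion onto floodwater (4 cm depth, alluvial soil) at specified g/ha. Grown in greenhouse at 25 to 30° C; herbicidal effect rated three weeks after treatment.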

bulrush [5] = experiment: Test Example 2: weedkilling efficacy, growth period weed treatment in the submerged state; B: bulrush; settings: treatment dosage 252 g/ha
Method in brief: as §2

oval-leafed pondweed [6] = experiment: Test Example 2: weedkilling efficacy, growth period weed treatment in the submerged state; C: oval-leafed pondweed; settings: treatment dosage 252 g/ha
Method in brief: as §2

crabgrass [7] = experiment: Test Example 3: weedkilling efficacy through soil treatment; D: crabgrass; settings: treatment dosage 315 g/ha
Method in brief: (§3)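 Crop and weed responses were judged three weeks after a uniform surface spray of the water-diluted emulsion at the given g/ha rate. Seeds sat beneath about 1.5 cm of sterilized diluvial soil, and boxes stood in a greenhouse at 25 to 30° C.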

green foxtail [8] = experiment: Test Example 3: weedkilling efficacy through soil treatment; E: green foxtail; settings: treatment dosage 315 g/ha
Method in brief: as §3

black-grass [9] = experiment: Test Example 3: weedkilling efficacy through soil treatment; H: black-grass; settings: treatment dosage 315 g/ha
Method in brief: as §3

Italian ryegrass [10] = experiment: Test Example 3: weedkilling efficacy through soil treatment; I: Italian ryegrass; settings: treatment dosage 315 g/ha
Method in brief: as §3

Indian mallow [11] = experiment: Test Example 3: weedkilling efficacy through soil treatment; K: Indian mallow; settings: treatment dosage 315 g/ha
Method in brief: as §3

redroot pigweed [12] = experiment: Test Example 3: weedkilling efficacy through soil treatment; L: redroot pigweed; settings: treatment dosage 315 g/ha
Method in brief: as §3

fig-leafed goosefoot [13] = experiment: Test Example 3: weedkilling efficacy through soil treatment; M: fig-leafed goosefoot; settings: treatment dosage 315 g/ha
Method in brief: as §3

chickweed [14] = experiment: Test Example 3: weedkilling efficacy through soil treatment; N: chickweed; settings: treatment dosage 315 g/ha
Method in brief: as §3

catchweed [15] = experiment: Test Example 3: weedkilling efficacy through soil treatment; O: catchweed; settings: treatment dosage 315 g/ha
Method in brief: as §3

birds-eye speedwell [16] = experiment: Test Example 3: weedkilling efficacy through soil treatment; p: birds-eye speedwell; settings: treatment dosage 315 g/ha
Method in brief: as §3

directly sown rice [17] = experiment: Test Example 3: soil treatment, effect on crop; b: directly sown rice; settings: treatment dosage 315 g/ha
Method in brief: as §3

corn [18] = experiment: Test Example 3: soil treatment, effect on crop; c: corn; settings: treatment dosage 315 g/ha
Method in brief: as §3

soybean [19] = experiment: Test Example 3: soil treatment, effect on crop; d: soybean; settings: treatment dosage 315 g/ha
Method in brief: as §3

wheat [20] = experiment: Test Example 3: soil treatment, effect on crop; e: wheat; settings: treatment dosage 315 g/ha
Method in brief: as §3

beet [21] = experiment: Test Example 3: soil treatment, effect on crop; f: beet; settings: treatment dosage 315 g/ha
Method in brief: as §3

crabgrass [22] = experiment: Test Example 4: weedkilling efficacy by foliar treatment; D: crabgrass; settings: treatment dosage 315 g/ha
Method in brief: (§4)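 Seeds are spot-sown into sterilized diluvial soil and covered with about 1.5 cm of soil. After 14 days' greenhouse growth at 25 to 30° C, plants are sprayed on stems and leaves with diluted emulsion at the stated g/ha rate, then scored at 3 weeks.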

green foxtail [23] = experiment: Test Example 4: weedkilling efficacy by foliar treatment; E: green foxtail; settings: treatment dosage 315 g/ha
Method in brief: as §4

black-grass [24] = experiment: Test Example 4: weedkilling efficacy by foliar treatment; H: black-grass; settings: treatment dosage 315 g/ha
Method in brief: as §4

Italian ryegrass [25] = experiment: Test Example 4: weedkilling efficacy by foliar treatment; I: Italian ryegrass; settings: treatment dosage 315 g/ha
Method in brief: as §4

Indian mallow [26] = experiment: Test Example 4: weedkilling efficacy by foliar treatment; K: Indian mallow; settings: treatment dosage 315 g/ha
Method in brief: as §4

redroot pigweed [27] = experiment: Test Example 4: weedkilling efficacy by foliar treatment; L: redroot pigweed; settings: treatment dosage 315 g/ha
Method in brief: as §4

fig-leafed goosefoot [28] = experiment: Test Example 4: weedkilling efficacy by foliar treatment; M: fig-leafed goosefoot; settings: treatment dosage 315 g/ha
Method in brief: as §4

chickweed [29] = experiment: Test Example 4: weedkilling efficacy by foliar treatment; N: chickweed; settings: treatment dosage 315 g/ha
Method in brief: as §4

catchweed [30] = experiment: Test Example 4: weedkilling efficacy by foliar treatment; O: catchweed; settings: treatment dosage 315 g/ha
Method in brief: as §4

birds-eye speedwell [31] = experiment: Test Example 4: weedkilling efficacy by foliar treatment; p: birds-eye speedwell; settings: treatment dosage 315 g/ha
Method in brief: as §4

directly sown rice [32] = experiment: Test Example 4: foliar treatment, effect on crop; b: directly sown rice; settings: treatment dosage 315 g/ha
Method in brief: as §4

corn [33] = experiment: Test Example 4: foliar treatment, effect on crop; c: corn; settings: treatment dosage 315 g/ha
Method in brief: as §4

soybean [34] = experiment: Test Example 4: foliar treatment, effect on crop; d: soybean; settings: treatment dosage 315 g/ha
Method in brief: as §4

wheat [35] = experiment: Test Example 4: foliar treatment, effect on crop; e: wheat; settings: treatment dosage 315 g/ha
Method in brief: as §4

beet [36] = experiment: Test Example 4: foliar treatment, effect on crop; f: beet; settings: treatment dosage 315 g/ha
Method in brief: as §4

Compound	A (barnyard grass) weedkilling efficacy grade (barnyard grass [1])	B (bulrush) weedkilling efficacy grade (bulrush [2])	C (oval-leafed pondweed) weedkilling efficacy grade (oval-leafed pondweed [3])	a (transplanted rice) effect on crop grade (transplanted rice)	A (barnyard grass) weedkilling efficacy grade (barnyard grass [4])	B (bulrush) weedkilling efficacy grade (bulrush [5])	C (oval-leafed pondweed) weedkilling efficacy grade (oval-leafed pondweed [6])	D (crabgrass) weedkilling efficacy grade (crabgrass [7])	E (green foxtail) weedkilling efficacy grade (green foxtail [8])	H (black-grass) weedkilling efficacy grade (black-grass [9])	I (Italian ryegrass) weedkilling efficacy grade (Italian ryegrass [10])	K (Indian mallow) weedkilling efficacy grade (Indian mallow [11])	L (redroot pigweed) weedkilling efficacy grade (redroot pigweed [12])	M (fig-leafed goosefoot) weedkilling efficacy grade (fig-leafed goosefoot [13])	N (chickweed) weedkilling efficacy grade (chickweed [14])	O (catchweed) weedkilling efficacy grade (catchweed [15])	P (birds-eye speedwell) weedkilling efficacy grade (birds-eye speedwell [16])	b (directly sown rice) effect on crop grade (directly sown rice [17])	c (corn) effect on crop grade (corn [18])	d (soybean) effect on crop grade (soybean [19])	also measured
CC1=C(c2ccccc2)C(=O)N(C(C)(C)C(=O)Nc2nc(-c3ccccc3)ns2)CO1 [B-1-17]	5 (weed kill ratio 90% or more, (practically complete withering))	5 (weed kill ratio 90% or more, (practically complete withering))	5 (weed kill ratio 90% or more, (practically complete withering))	0 (weed kill ratio 5% or less (practically no effect))	5 (weed kill ratio 90% or more, (practically complete withering))	5 (weed kill ratio 90% or more, (practically complete withering))	4 (weed kill ratio 70% or more, less than 90%)	5 (weed kill ratio 90% or more, (practically complete withering))	5 (weed kill ratio 90% or more, (practically complete withering))	5 (weed kill ratio 90% or more, (practically complete withering))	5 (weed kill ratio 90% or more, (practically complete withering))	0 (weed kill ratio 5% or less (practically no effect))	4 (weed kill ratio 70% or more, less than 90%)	5 (weed kill ratio 90% or more, (practically complete withering))	3 (weed kill ratio 40% or more, less than 70%)	5 (weed kill ratio 90% or more, (practically complete withering))	5 (weed kill ratio 90% or more, (practically complete withering))	0 (weed kill ratio 5% or less (practically no effect))	0 (weed kill ratio 5% or less (practically no effect))	0 (weed kill ratio 5% or less (practically no effect))	e (wheat) effect on crop grade (wheat [20]): 3 (weed kill ratio 40% or more, less than 70%); f (beet) effect on crop grade (beet [21]): 0 (weed kill ratio 5% or less (practically no effect)); D (crabgrass) weedkilling efficacy grade (crabgrass [22]): 5 (weed kill ratio 90% or more, (practically complete withering)); E (green foxtail) weedkilling efficacy grade (green foxtail [23]): 5 (weed kill ratio 90% or more, (practically complete withering)); H (black-grass) weedkilling efficacy grade (black-grass [24]): 5 (weed kill ratio 90% or more, (practically complete withering)); I (Italian ryegrass) weedkilling efficacy grade (Italian ryegrass [25]): 1 (weed kill ratio 5% or more, less than 20%); K (Indian mallow) weedkilling efficacy grade (Indian mallow [26]): 5 (weed kill ratio 90% or more, (practically complete withering)); L (redroot pigweed) weedkilling efficacy grade (redroot pigweed [27]): 5 (weed kill ratio 90% or more, (practically complete withering)); M (fig-leafed goosefoot) weedkilling efficacy grade (fig-leafed goosefoot [28]): 4 (weed kill ratio 70% or more, less than 90%); N (chickweed) weedkilling efficacy grade (chickweed [29]): 3 (weed kill ratio 40% or more, less than 70%); O (catchweed) weedkilling efficacy grade (catchweed [30]): 4 (weed kill ratio 70% or more, less than 90%); P (birds-eye speedwell) weedkilling efficacy grade (birds-eye speedwell [31]): 3 (weed kill ratio 40% or more, less than 70%); b (directly sown rice) effect on crop grade (directly sown rice [32]): 4 (weed kill ratio 70% or more, less than 90%); c (corn) effect on crop grade (corn [33]): 5 (weed kill ratio 90% or more, (practically complete withering)); d (soybean) effect on crop grade (soybean [34]): 0 (weed kill ratio 5% or less (practically no effect)); e (wheat) effect on crop grade (wheat [35]): 0 (weed kill ratio 5% or less (practically no effect)); f (beet) effect on crop grade (beet [36]): 0 (weed kill ratio 5% or less (practically no effect))
CC1=C(c2ccc(Cl)s2)C(=O)N(C(C)(C)C(=O)Nc2cccc(Br)n2)CO1 [B-2-03]	5 (weed kill ratio 90% or more, (practically complete withering))	5 (weed kill ratio 90% or more, (practically complete withering))	5 (weed kill ratio 90% or more, (practically complete withering))	0 (weed kill ratio 5% or less (practically no effect))	5 (weed kill ratio 90% or more, (practically complete withering))	5 (weed kill ratio 90% or more, (practically complete withering))	4 (weed kill ratio 70% or more, less than 90%)	3 (weed kill ratio 40% or more, less than 70%)	3 (weed kill ratio 40% or more, less than 70%)	5 (weed kill ratio 90% or more, (practically complete withering))	3 (weed kill ratio 40% or more, less than 70%)	0 (weed kill ratio 5% or less (practically no effect))	3 (weed kill ratio 40% or more, less than 70%)	0 (weed kill ratio 5% or less (practically no effect))	4 (weed kill ratio 70% or more, less than 90%)	0 (weed kill ratio 5% or less (practically no effect))	4 (weed kill ratio 70% or more, less than 90%)	1 (weed kill ratio 5% or more, less than 20%)	0 (weed kill ratio 5% or less (practically no effect))	0 (weed kill ratio 5% or less (practically no effect))	e (wheat) effect on crop grade (wheat [20]): 1 (weed kill ratio 5% or more, less than 20%); f (beet) effect on crop grade (beet [21]): 0 (weed kill ratio 5% or less (practically no effect)); D (crabgrass) weedkilling efficacy grade (crabgrass [22]): 3 (weed kill ratio 40% or more, less than 70%); E (green foxtail) weedkilling efficacy grade (green foxtail [23]): 1 (weed kill ratio 5% or more, less than 20%); H (black-grass) weedkilling efficacy grade (black-grass [24]): 3 (weed kill ratio 40% or more, less than 70%); I (Italian ryegrass) weedkilling efficacy grade (Italian ryegrass [25]): 3 (weed kill ratio 40% or more, less than 70%); K (Indian mallow) weedkilling efficacy grade (Indian mallow [26]): 0 (weed kill ratio 5% or less (practically no effect)); L (redroot pigweed) weedkilling efficacy grade (redroot pigweed [27]): 1 (weed kill ratio 5% or more, less than 20%); M (fig-leafed goosefoot) weedkilling efficacy grade (fig-leafed goosefoot [28]): 3 (weed kill ratio 40% or more, less than 70%); N (chickweed) weedkilling efficacy grade (chickweed [29]): 0 (weed kill ratio 5% or less (practically no effect)); O (catchweed) weedkilling efficacy grade (catchweed [30]): 0 (weed kill ratio 5% or less (practically no effect)); P (birds-eye speedwell) weedkilling efficacy grade (birds-eye speedwell [31]): 2 (weed kill ratio 20% or more, less than 40%); b (directly sown rice) effect on crop grade (directly sown rice [32]): 1 (weed kill ratio 5% or more, less than 20%); c (corn) effect on crop grade (corn [33]): 0 (weed kill ratio 5% or less (practically no effect)); d (soybean) effect on crop grade (soybean [34]): 1 (weed kill ratio 5% or more, less than 20%); e (wheat) effect on crop grade (wheat [35]): 0 (weed kill ratio 5% or less (practically no effect)); f (beet) effect on crop grade (beet [36]): 1 (weed kill ratio 5% or more, less than 20%)
